Columns and labels:
Cyperus rotundus [1] = assay: Herbicidal activity against Cyperus rotundus assessed as total fresh weight at 7 kg/ha applied as spray before seed sowing (reference value: 23.6 MT/ha); assay type: functional
Chenopodiastrum murale [2] = assay: Herbicidal activity against Chenopodium murale assessed as total fresh weight at 7 kg/ha applied as spray before seed sowing (reference value: 23.6 MT/ha); assay type: functional
Allium cepa [3] = assay: Phytotoxicity in Allium cepa (onion) seedling assessed as total fresh weight at 7 kg/ha applied as spray before seed sowing (reference value: 7.71 MT/ha); assay type: organism-based; settings: in vivo, other
Cyperus rotundus [4] = assay: Herbicidal activity against Cyperus rotundus assessed as total dry weight at 7 kg/ha applied as spray before seed sowing (reference value: 4.1 MT/ha); assay type: functional
Chenopodiastrum murale [5] = assay: Herbicidal activity against Chenopodium murale assessed as total dry weight at 7 kg/ha applied as spray before seed sowing (reference value: 4.1 MT/ha); assay type: functional
Malva sylvestris [6] = assay: Herbicidal activity against Malva sylvestris assessed as total fresh weight at 7 kg/ha applied as spray before seed sowing (reference value: 23.6 MT/ha); assay type: functional
Malva sylvestris [7] = assay: Herbicidal activity against Malva sylvestris assessed as total dry weight at 7 kg/ha applied as spray before seed sowing (reference value: 4.1 MT/ha); assay type: functional
Malva sylvestris [8] = assay: Herbicidal activity against Malva sylvestris assessed as total fresh weight at 3.75 kg/ha applied as spray before seed sowing (reference value: 23.6 MT/ha); assay type: functional
Malva sylvestris [9] = assay: Herbicidal activity against Malva sylvestris assessed as total dry weight at 3.75 kg/ha applied as spray before seed sowing (reference value: 4.1 MT/ha); assay type: functional
Cyperus rotundus [10] = assay: Herbicidal activity against Cyperus rotundus assessed as total dry weight at 3.75 kg/ha applied as spray before seed sowing (reference value: 4.1 MT/ha); assay type: functional
Allium cepa [11] = assay: Phytotoxicity in Allium cepa (onion) seedling assessed as total fresh weight at 3.75 kg/ha applied as spray before seed sowing (reference value: 7.71 MT/ha); assay type: organism-based; settings: in vivo, other
Cyperus rotundus [12] = assay: Herbicidal activity against Cyperus rotundus assessed as total fresh weight at 3.75 kg/ha applied as spray before seed sowing (reference value: 23.6 MT/ha); assay type: functional
Chenopodiastrum murale [13] = assay: Herbicidal activity against Chenopodium murale assessed as total dry weight at 3.75 kg/ha applied as spray before seed sowing (reference value: 4.1 MT/ha); assay type: functional
Chenopodiastrum murale [14] = assay: Herbicidal activity against Chenopodium murale assessed as total fresh weight at 3.75 kg/ha applied as spray before seed sowing (reference value: 23.6 MT/ha); assay type: functional
Chenopodiastrum murale [15] = assay: Herbicidal activity against Chenopodium murale assessed as total dry weight at 2.45 kg/ha applied as spray before seed sowing (reference value: 4.1 MT/ha); assay type: functional
Cyperus rotundus [16] = assay: Herbicidal activity against Cyperus rotundus assessed as total dry weight at 2.45 kg/ha applied as spray before seed sowing (reference value: 4.1 MT/ha); assay type: functional
Malva sylvestris [17] = assay: Herbicidal activity against Malva sylvestris assessed as total fresh weight at 2.45 kg/ha applied as spray before seed sowing (reference value: 23.6 MT/ha); assay type: functional
Malva sylvestris [18] = assay: Herbicidal activity against Malva sylvestris assessed as total dry weight at 2.45 kg/ha applied as spray before seed sowing (reference value: 4.1 MT/ha); assay type: functional
Cyperus rotundus [19] = assay: Herbicidal activity against Cyperus rotundus assessed as total fresh weight at 2.45 kg/ha applied as spray before seed sowing (reference value: 23.6 MT/ha); assay type: functional
Allium cepa [20] = assay: Phytotoxicity in Allium cepa (onion) seedling assessed as total fresh weight at 2.45 kg/ha applied as spray before seed sowing (reference value: 7.71 MT/ha); assay type: organism-based; settings: in vivo, other
Chenopodiastrum murale [21] = assay: Herbicidal activity against Chenopodium murale assessed as total fresh weight at 2.45 kg/ha applied as spray before seed sowing (reference value: 23.6 MT/ha); assay type: functional
Malva sylvestris [22] = assay: Herbicidal activity against Malva sylvestris assessed as total dry weight at 0.35 kg/ha applied as spray before seed sowing (reference value: 4.1 MT/ha); assay type: functional
Chenopodiastrum murale [23] = assay: Herbicidal activity against Chenopodium murale assessed as total dry weight at 0.35 kg/ha applied as spray before seed sowing (reference value: 4.1 MT/ha); assay type: functional
Chenopodiastrum murale [24] = assay: Herbicidal activity against Chenopodium murale assessed as total fresh weight at 0.35 kg/ha applied as spray before seed sowing (reference value: 23.6 MT/ha); assay type: functional
Cyperus rotundus [25] = assay: Herbicidal activity against Cyperus rotundus assessed as total fresh weight at 0.35 kg/ha applied as spray before seed sowing (reference value: 23.6 MT/ha); assay type: functional
Cyperus rotundus [26] = assay: Herbicidal activity against Cyperus rotundus assessed as total dry weight at 0.35 kg/ha applied as spray before seed sowing (reference value: 4.1 MT/ha); assay type: functional
Malva sylvestris [27] = assay: Herbicidal activity against Malva sylvestris assessed as total fresh weight at 0.35 kg/ha applied as spray before seed sowing (reference value: 23.6 MT/ha); assay type: functional
Allium cepa [28] = assay: Phytotoxicity in Allium cepa (onion) seedling assessed as total fresh weight at 0.35 kg/ha applied as spray before seed sowing (reference value: 7.71 MT/ha); assay type: organism-based; settings: in vivo, other
Cyperus rotundus [29] = assay: Herbicidal activity against Cyperus rotundus assessed as total fresh weight at 0.75 kg/ha applied as spray before seed sowing (reference value: 23.6 MT/ha); assay type: functional
Malva sylvestris [30] = assay: Herbicidal activity against Malva sylvestris assessed as total dry weight at 0.75 kg/ha applied as spray before seed sowing (reference value: 4.1 MT/ha); assay type: functional
Cyperus rotundus [31] = assay: Herbicidal activity against Cyperus rotundus assessed as total dry weight at 0.75 kg/ha applied as spray before seed sowing (reference value: 4.1 MT/ha); assay type: functional
Malva sylvestris [32] = assay: Herbicidal activity against Malva sylvestris assessed as decrease in total dry weight at 0.75 kg/ha applied as spray during post-emergence relative to weed-infested control; assay type: functional; set-up: scale not given: the % may be the effect or the level left
Malva sylvestris [33] = assay: Herbicidal activity against Malva sylvestris assessed as total fresh weight at 0.75 kg/ha applied as spray before seed sowing (reference value: 23.6 MT/ha); assay type: functional
Chenopodiastrum murale [34] = assay: Herbicidal activity against Chenopodium murale assessed as decrease in total dry weight at 0.75 kg/ha applied as spray during postemergence relative to weed-infested control; assay type: functional; set-up: scale not given: the % may be the effect or the level left
Allium cepa [35] = assay: Phytotoxicity in Allium cepa (onion) seedling assessed as total fresh weight at 0.75 kg/ha applied as spray before seed sowing (reference value: 7.71 MT/ha); assay type: organism-based; settings: in vivo, other
Chenopodiastrum murale [36] = assay: Herbicidal activity against Chenopodium murale assessed as total fresh weight at 0.75 kg/ha applied as spray before seed sowing (reference value: 23.6 MT/ha); assay type: functional
Chenopodiastrum murale [37] = assay: Herbicidal activity against Chenopodium murale assessed as total fresh weight at 0.75 kg/ha applied as spray during postemergence (reference value: 23.6 MT/ha); assay type: functional
Malva sylvestris [38] = assay: Herbicidal activity against Malva sylvestris assessed as total fresh weight at 0.75 kg/ha applied as spray during post-emergence (reference value: 23.6 MT/ha); assay type: functional
Allium cepa [39] = assay: Phytotoxicity in Allium cepa (onion) seedling assessed as total fresh weight at 0.75 kg/ha applied as spray during post-emergence (reference value: 7.71 MT/ha); assay type: organism-based; settings: in vivo, other
Chenopodiastrum murale [40] = assay: Herbicidal activity against Chenopodium murale assessed as total dry weight at 0.75 kg/ha applied as spray before seed sowing (reference value: 4.1 MT/ha); assay type: functional
Cyperus rotundus [41] = assay: Herbicidal activity against Cyperus rotundus assessed as decrease in total dry weight at 0.75 kg/ha applied as spray during post-emergence relative to weed-infested control; assay type: functional; set-up: scale not given: the % may be the effect or the level left
Cyperus rotundus [42] = assay: Herbicidal activity against Cyperus rotundus assessed as total fresh weight at 0.75 kg/ha applied as spray during post-emergence (reference value: 23.6 MT/ha); assay type: functional

**Q.** What does the source list for `COC(=O)c1c(Cl)c(Cl)c(C(=O)OC)c(Cl)c1Cl` [DACTHAL]?
**A.** Activity (Cyperus rotundus [1]): 19 MT/ha; Activity (Chenopodiastrum murale [2]): 19 MT/ha; Activity (Allium cepa [3]): 8.2 MT/ha; Activity (Cyperus rotundus [4]): 3.63 MT/ha; Activity (Chenopodiastrum murale [5]): 3.63 MT/ha; Activity (Malva sylvestris [6]): 19 MT/ha; Activity (Malva sylvestris [7]): 3.63 MT/ha

**Q.** Which Activity (Malva sylvestris [8]) does the source give for `CN(C)C(=O)C(c1ccccc1)c1ccccc1` [DIPHENAMIDE] here?
**A.** The Activity was 21.5 MT/ha.

**Q.** And the Activity (Malva sylvestris [9])?
**A.** Its Activity is 4.79 MT/ha.

**Q.** And the Activity (Cyperus rotundus [10])?
**A.** The Activity was 4.79 MT/ha.

**Q.** What about the Activity (Allium cepa [11]) of the same compound?
**A.** The Activity was 5.16 MT/ha.

**Q.** What about the Activity (Cyperus rotundus [12]) of the same compound?
**A.** The Activity was 21.5 MT/ha.

**Q.** What about the Activity (Chenopodiastrum murale [13]) of the same compound?
**A.** The Activity was 4.79 MT/ha.

**Q.** What about the Activity (Chenopodiastrum murale [14]) of the same compound?
**A.** Its Activity is 21.5 MT/ha.

**Q.** Which Activity (Chenopodiastrum murale [15]) does the source give for `CNC(=O)N(C)c1nc2ccccc2s1` [METHABENZTHIAZURON] here?
**A.** Its Activity is 2.85 MT/ha.

**Q.** What about the Activity (Cyperus rotundus [16]) of the same compound?
**A.** The Activity was 2.85 MT/ha.

**Q.** And the Activity (Malva sylvestris [17])?
**A.** Its Activity is 9 MT/ha.

**Q.** What about the Activity (Malva sylvestris [18]) of the same compound?
**A.** Its Activity is 2.85 MT/ha.

**Q.** What about the Activity (Cyperus rotundus [19]) of the same compound?
**A.** The Activity was 9 MT/ha.

**Q.** What about the Activity (Allium cepa [20]) of the same compound?
**A.** The Activity was 7.18 MT/ha.

**Q.** And the Activity (Chenopodiastrum murale [21])?
**A.** Its Activity is 9 MT/ha.

**Q.** Which Activity (Malva sylvestris [22]) does the source give for `CSc1nnc(C(C)(C)C)c(=O)n1N` [METRIBUZIN] here?
**A.** The Activity was 3.32 MT/ha.

**Q.** And the Activity (Chenopodiastrum murale [23])?
**A.** The Activity was 3.32 MT/ha.

**Q.** What about the Activity (Chenopodiastrum murale [24]) of the same compound?
**A.** Its Activity is 17.1 MT/ha.

**Q.** What about the Activity (Cyperus rotundus [25]) of the same compound?
**A.** The Activity was 17.1 MT/ha.

**Q.** And the Activity (Cyperus rotundus [26])?
**A.** The Activity was 3.32 MT/ha.

**Q.** And the Activity (Malva sylvestris [27])?
**A.** The Activity was 17.1 MT/ha.

**Q.** What about the Activity (Allium cepa [28]) of the same compound?
**A.** Its Activity is 7.64 MT/ha.

**Q.** Which results are given for `CC(C)Oc1cc(-n2nc(C(C)(C)C)oc2=O)c(Cl)cc1Cl` [OXADIAZON]?
**A.** Activity (Cyperus rotundus [29]): 13.3 MT/ha; Activity (Malva sylvestris [30]): 2.37 MT/ha; Activity (Cyperus rotundus [31]): 2.37 MT/ha; Activity (Malva sylvestris [32]): 57%; Activity (Malva sylvestris [33]): 13.3 MT/ha; Activity (Chenopodiastrum murale [34]): 57%; Activity (Allium cepa [35]): 13.37 MT/ha; Activity (Chenopodiastrum murale [36]): 13.3 MT/ha; Activity (Chenopodiastrum murale [37]): 10.8 MT/ha; Activity (Malva sylvestris [38]): 10.8 MT/ha; Activity (Allium cepa [39]): 15.69 MT/ha; Activity (Chenopodiastrum murale [40]): 2.37 MT/ha; Activity (Cyperus rotundus [41]): 57%; Activity (Cyperus rotundus [42]): 10.8 MT/ha

Source: ChEMBL document CHEMBL3045187, “Chemical weed control in seedbed sown onion (Allium cepa L.)” (Crop Prot, 2006)
